Measured values published in patent US20220193060A1, “Inhibition of IL-1 Induced Inflammation” (THIOLAB, LLC., priority 2019, published 2022).

System: wasp sting
Assay: Case: topical CPDS cream for wasp sting
Assay type: in vivo, human
Conditions: topical cream containing 2% CPDS by weight
Method: An individual was stung by a wasp on their hand. […] Application of CPDS cream was repeated after two hours and every 4 hours thereafter. The swelling and redness vanished after 24 hours.

O=C(O)c1ccc(SSc2ccc(C(=O)O)cn2)nc1 [CPDS, 6,6′-dithiodinicotinic acid]
burning and itching (person): immediate relief
time until swelling and redness vanished: 24 h
